Marks after values point to notes of the source that are not given here.
Test system: hypertensive subjects
Assay: Seated automated office blood pressure (AOBP) in randomized, placebo-controlled, dose-ranging study
Assay type: in vivo, human
Parameters: Difference from placebo in change in blood pressure: unit not given here
Method: A randomized, double-blinded, placebo-controlled, dose-ranging, multicenter study was conducted to evaluate the effect of orally administered Compound A HBr on blood pressure for the treatment of hypertension in male and female subjects ≥18 years of age.
The study consists of two parts. For enrollment into Part 1 of the study, a subject's value of plasma renin activity (PRA) must be ≤1 ng/mL/h based on morning measurement. If the value of PRA >1 ng/mL/h based on morning measurement, then subjects may be eligible to enter Part 2 of the study.
For Part 1, 163 enrolled subjects ≥18 years of age were randomized into 6 equal treatment groups (1:1:1:1:1:1) to 12.5 mg BID, 25 mg BID, 12.5 mg QD, 50 mg QD, 100 mg QD, or placebo. After a review of interim clinical data, the 2 lowest dose levels (12.5 mg QD and 12.5 mg BID) were stopped for future randomization due to a lack of consistent meaningful reduction of blood pressure, but the patients randomized to that point remained in the study through completion. Thus, after the review of interim clinical data, subjects were randomized into 4 equal treatment groups (1:1:1:1) to 25 mg BID, 50 mg QD, 100 mg QD, or placebo.
For Part 2, 36 enrolled subjects ≥18 years of age were randomized (5:1) to either 100 mg QD Compound A HBr or placebo such that the Compound A HBr treatment group consisted of approximately 30 subjects and the placebo treatment group will consist of approximately 6 subjects.
Subjects orally administered the assigned study drug (Compound A HBr or placebo) according to the assigned dosing regimen for 8 weeks beginning on Study Day 1. All subjects in Part 1 (regardless of dosing group) received BID dosing to preserve the integrity of the blind; active drug is administered as the morning dose for all QD dose groups. Subjects returned to the research facility or were seen by the clinical investigator or approved home health care professional at the end of Study Weeks 1, 2, 3, 4, 5, 6, 7, and 8 (±2 days) for protocol-defined efficacy and safety assessments and procedures, assessment of adverse events (AEs), and confirmation of compliance with study drug usage. Subjects also completed a telephone visit and blood pressure (BP) check at home approximately 3 days post last dose of study drug. Subjects attended up to 14 full clinic visits, including a pre-Screening visit, a Screening/start of Placebo Run-in visit, a second visit during Placebo Run-in, a clinic visit to initiate the ABPM procedure, a Randomization visit, 8 weekly visits during double-blind treatment, and an end-of-study visit scheduled 4 weeks after the last study treatment for final efficacy and safety assessments.
An automated oscillometric sphygmomanometer device was used to measure the subjects' systolic and diastolic blood pressure in office after approximately 5 minutes of rest in the seated position.
The primary endpoint is the change in office-measured (mean of last 2 of 5 unattended measurements using an automated oscillometric sphygmomanometer device after approximately 5 minutes of rest in the seated position) systolic blood pressure (SBP) from baseline to the end of Study Week 8.
Secondary endpoints of this study were: • (a) Change in 24-hour ambulatory blood pressure monitoring (ABPM) parameters (systolic and diastolic) from baseline to the end of Study Week 7. • (b) Change in office-measured SBP from baseline to the end of Study Weeks 1, 2, 3, 4, 5, 6, and 7. • (c) Change in office-measured diastolic blood pressure (DBP) from baseline to the end of Study Weeks 1, 2, 3, 4, 5, 6, 7, and 8. • (d) Proportion of subjects who achieve office-measured BP of ≤130/80 mm Hg by the end of Study Week 8.

[1] = 100 mg QD Part 1, Week 8, Parts 1 & 2 model, FAS

SMILES: CC(=O)N[C@H]1CC[C@H](NC(=O)CN2CCN(c3nncc(-c4ccc(C)cc4)n3)CC2)CC1 [Compound A HBr]
- Placebo-adjusted reduction in AOBP SBP, concomitant use of thiazide diuretics (50 mg QD, Part 1, Week 8): −12.9 mmHg
- Difference from placebo in change in blood pressure (50 mg QD, Thiazide No): −4.3
- Difference from placebo in change in blood pressure (50 mg QD, Thiazide Yes): −13.2*
- Seated AOBP DBP change from baseline (CFB), Mean (SD) (50 mg QD, Week 1, Part 1, FAS): −4.34 (8.86) mmHg
- Seated AOBP DBP, Mean (SD) (50 mg QD, Week 1, Part 1, FAS): 80.54 (7.58) mmHg
- Seated AOBP SBP change from baseline (CFB), Mean (SD) (50 mg QD, Week 1, Part 1, FAS): −8.32 (14.27) mmHg
- Seated AOBP SBP, Mean (SD) (50 mg QD, Week 1, Part 1, FAS): 133.50 (12.23) mmHg
- Seated AOBP DBP change from baseline (CFB), Mean (SD) (50 mg QD, Week 2, Part 1, FAS): −5.91 (7.38) mmHg
- Seated AOBP DBP, Mean (SD) (50 mg QD, Week 2, Part 1, FAS): 78.96 (8.27) mmHg
- Seated AOBP SBP change from baseline (CFB), Mean (SD) (50 mg QD, Week 2, Part 1, FAS): −9.54 (13.78) mmHg
- Seated AOBP SBP, Mean (SD) (50 mg QD, Week 2, Part 1, FAS): 132.29 (10.55) mmHg
- Seated AOBP DBP change from baseline (CFB), Mean (SD) (50 mg QD, Week 3, Part 1, FAS): −3.84 (8.83) mmHg
- Seated AOBP DBP, Mean (SD) (50 mg QD, Week 3, Part 1, FAS): 81.04 (9.15) mmHg
- Seated AOBP SBP change from baseline (CFB), Mean (SD) (50 mg QD, Week 3, Part 1, FAS): −9.50 (16.67) mmHg
- Seated AOBP SBP, Mean (SD) (50 mg QD, Week 3, Part 1, FAS): 132.32 (13.45) mmHg
- LSM Δ with Placebo, seated AOBP DBP (MMRM) (50 mg QD, Week 4, Part 1, FAS): −3.95 mmHg
- Modelled (MMRM) LSM (SEM) change from baseline, seated AOBP DBP (50 mg QD, Week 4, Part 1, FAS): −4.49 (1.41) mmHg
- Seated AOBP DBP change from baseline (CFB), Mean (SD) (50 mg QD, Week 4, Part 1, FAS): −5.30 (8.33) mmHg
- Seated AOBP DBP, Mean (SD) (50 mg QD, Week 4, Part 1, FAS): 79.57 (8.36) mmHg
- Seated AOBP SBP change from baseline (CFB), Mean (SD) (50 mg QD, Week 4, Part 1, FAS): −9.07 (15.77) mmHg
- Seated AOBP SBP, Mean (SD) (50 mg QD, Week 4, Part 1, FAS): 132.75 (11.85) mmHg
- Seated AOBP DBP change from baseline (CFB), Mean (SD) (50 mg QD, Week 5, Part 1, FAS): −6.10 (7.22) mmHg
- Seated AOBP DBP, Mean (SD) (50 mg QD, Week 5, Part 1, FAS): 78.58 (7.53) mmHg
- Seated AOBP SBP change from baseline (CFB), Mean (SD) (50 mg QD, Week 5, Part 1, FAS): −8.38 (15.19) mmHg
- Seated AOBP SBP, Mean (SD) (50 mg QD, Week 5, Part 1, FAS): 134.27 (15.39) mmHg
- Seated AOBP DBP change from baseline (CFB), Mean (SD) (50 mg QD, Week 6, Part 1, FAS): −6.26 (8.48) mmHg
- Seated AOBP DBP, Mean (SD) (50 mg QD, Week 6, Part 1, FAS): 78.63 (8.17) mmHg
- Seated AOBP SBP change from baseline (CFB), Mean (SD) (50 mg QD, Week 6, Part 1, FAS): −10.72 (14.86) mmHg
- Seated AOBP SBP, Mean (SD) (50 mg QD, Week 6, Part 1, FAS): 131.11 (12.49) mmHg
- Seated AOBP DBP change from baseline (CFB), Mean (SD) (50 mg QD, Week 7, Part 1, FAS): −3.75 (11.03) mmHg
- Seated AOBP DBP, Mean (SD) (50 mg QD, Week 7, Part 1, FAS): 80.88 (11.41) mmHg
- Seated AOBP SBP change from baseline (CFB), Mean (SD) (50 mg QD, Week 7, Part 1, FAS): −7.69 (18.91) mmHg
- Seated AOBP SBP, Mean (SD) (50 mg QD, Week 7, Part 1, FAS): 133.19 (16.39) mmHg
- LSM Δ from Placebo, change from baseline in seated AOBP SBP (MMRM) (50 mg QD, Week 8, Part 1, FAS): −9.58 mmHg
- LSM Δ with Placebo, seated AOBP DBP (MMRM) (50 mg QD, Week 8, Part 1, FAS): −5.46 mmHg
- Modelled (MMRM) LSM (SEM) change from baseline, seated AOBP DBP (50 mg QD, Week 8, Part 1, FAS): −7.09 (1.70) mmHg
- Modelled (MMRM) LSM (SEM) change from baseline, seated AOBP SBP (50 mg QD, Week 8, Part 1, FAS): −13.69 (2.67) mmHg
- Seated AOBP DBP change from baseline (CFB), Mean (SD) (50 mg QD, Week 8, Part 1, FAS): −8.05 (9.13) mmHg
- Seated AOBP DBP, Mean (SD) (50 mg QD, Week 8, Part 1, FAS): 76.82 (9.82) mmHg
- Seated AOBP SBP change from baseline (CFB), Mean (SD) (50 mg QD, Week 8, Part 1, FAS): −13.18 (17.17) mmHg
- Seated AOBP SBP, Mean (SD) (50 mg QD, Week 8, Part 1, FAS): 128.64 (13.69) mmHg
- Subjects with seated AOBP SBP/DBP ≤130/80 mmHg: No (50 mg QD, Week 8, Part 1, FAS): 16 (57.1) n (%)
- Subjects with seated AOBP SBP/DBP ≤130/80 mmHg: Yes (50 mg QD, Week 8, Part 1, FAS): 12 (42.9) n (%)
- Modelled (MMRM) LSM (SEM) change from baseline, seated AOBP DBP (100 mg QD Part 1, Week 4, Parts 1 & 2 model, FAS): −5.88 (1.49) mmHg
- Modelled (MMRM) LSM (SEM) change from baseline, seated AOBP DBP [1]: −4.57 (1.53) mmHg
- Modelled (MMRM) LSM (SEM) change from baseline, seated AOBP SBP [1]: −12.08 (2.68) mmHg

Source: patent US20260053811A1, “METHODS OF TREATING HYPERTENSION IN OBESE SUBJECTS” (Mineralys Therapeutics, Inc., priority 2022, published 2026)
